Values quoted from earlier work in patent publication US12569183B2 (University Of Maryland, Baltimore, priority 2018, dated 2026).

Key:
[1] = rapid IV infusions; hypotension, dyspnea, QT prolongation
[2] = clinical trials; median baseline QTc 405 msec
[3] = administered twice daily, steady state on day 3

For CC(C)NCC(O)c1ccc(NS(C)(=O)=O)cc1 (stereo not drawn) [sotalol], which adverse events [1] is on record?
The adverse events was “only mild to moderate adverse events”.

And the “slope of the concentration QTc relationship” value [2]?
Its value is 0.0158 ms/ng/mL.

And the “number of doses until steady-state exposures” value [3]?
The value was 4-5 doses.
